From US20240398805A1, “QUINAZOLINE DERIVED COMPOUNDS AS EGFR INHIBITORS AND THEIR USES THEREOF” (ACCUTAR BIOTECHNOLOGY INC., priority 2021, published 2024)

Tests used:
Format in all cases: cell-based
HCC827 cells = assay: Cell growth inhibition (CellTiter-Glo, 3 days) in HCC827; details: Homo sapiens, 72 h, 3 days after administration
Description: (§1) 2. Cell Growth Inhibition for HCC827, HCC827-SVD, HCC827-ASV, HCC827-YVMA and A431.
(§2) HCC827(ATCC), HCC827-SVD, HCC827-ASV, HCC827-YVMA were seeded in 96-well plates at 5000 cells/well in 90 μl of RPMI growth medium containing 10% FBS and 1% Penicillin Streptomycin. A431 (ATCC) cells were seed in 96-well plates at 5000 cells/well in 90 μl of DMEM growth medium containing 10% FBS and 1% Penicillin Streptomycin. Cells were incubated at 3700 overnight. The following day, the test compound was administered to the cells by using 1 Ox compound stock solution prepared in growth medium at various concentrations. After administration of the compound, cells were then incubated at 3700 for 3 days. Before CeIlTiter-Glo assay, the plates were equilibrated at room temperature for approximately 10 minutes. 100 ul of CelTiter-Glo® Reagent (Promega) was added to each well. The plates were then incubated at room temperature for 10 minutes and luminescence was recorded by EnSpire plate reader (PerkinElmer).

[1] = system: HCC827-SVD cells (human EGFR exon 20 insertion mutant D770_N771 insSVD); assay: Cell growth inhibition (CellTiter-Glo, 3 days) in HCC827-SVD; details: 72 h, 3 days after administration
Description: (§3) 1. Preparation of HCC827-SVD, HCC827-ASV and HCC827-YVMA Cell Lines
HCC827-SVD cell line were generated by first transducing HCC827 cells (ATCC) with lentiviral particles expressing codon-optimized human EGFR exon 20 insertion mutant D770_N771 insSVD, and then selecting under 5 μg/ml purimycin treatment for a week.
The resulting cells were further transduced with lentiviral particles carrying EGFR sgRNA and CAS9 to knockout the endogenous alleles of EGFR, and then selected under 500 μg/ml hygromycin B treatment for two weeks. Single clone was subsequently generated by limiting dilution approach. Endogenous EGFR knockout was confirmed by Sanger sequencing of cell genomic DNA and expression of exogenous mutant EGFR was verified by Western blot analysis.
as §1, §2

[2] = system: HCC827-ASV cells (human EGFR exon 20 insertion mutant A769_D770insASV); assay: Cell growth inhibition (CellTiter-Glo, 3 days) in HCC827-ASV; details: 72 h, 3 days after administration
Description: as §3
(§4) HCC827-ASV and HCC827-YVMA cell lines were generated in the similar approach as HCC827-SVD except that HCC827 cells (ATCC) were first transduced with lentiviral particles expressing codon-optimized human EGFR exon 20 insertion mutant A769_D770insASV and human ERBB2 exon20 insertion mutant A775_G776ins YVMA, respectively.
as §1, §2

[3] = system: HCC827-YVMA cells (human ERBB2 exon20 insertion mutant A775_G776ins YVMA); assay: Cell growth inhibition (CellTiter-Glo, 3 days) in HCC827-YVMA; details: 72 h, 3 days after administration
Description: as §3, §4, §1, §2

A431 cells = assay: Cell growth inhibition (CellTiter-Glo, 3 days) in A431; details: Homo sapiens, A-431, 72 h, 3 days after administration
Description: as §1, §2

| Compound | GI50 (HCC827 cells) [nM] | GI50 [1] [nM] | GI50 [2] [nM] | GI50 [3] [nM] | GI50 (A431 cells) [nM] |
| --- | --- | --- | --- | --- | --- |
| C=CC(=O)N1CCC(Nc2cc3c(Nc4ccc(Oc5ccnc(N6CCO[C@H](C)C6)c5)cc4F)ncnc3cc2OC)CC1 [Example 133, (R)-1-(4-((4-((2-fluoro-4-((2-(2-methylmorpholino)pyridin-4-yl)oxy)phenyl)amino)-7-methoxyquinazolin-6-yl)amino)piperidin-1-yl)prop-2-en-1-one] | 100 to 300 | < 30 | < 30 | < 30 | 600 to 1000 |
| C=CC(=O)N1CCC(Nc2cc3c(Nc4ccc(Oc5ccnc(N6CCCC(C)(O)C6)c5)cc4F)ncnc3cc2OC)CC1 (stereo not shown) [Example 220, 1-(4-((4-((2-fluoro-4-((2-(3-hydroxy-3-methylpiperidin-1-yl)pyridin-4-yl)oxy)phenyl)amino)-7-methoxyquinazolin-6-yl)amino)piperidin-1-yl)prop-2-en-1-one] | 100 to 300 | < 30 | < 30 | < 30 | 600 to 1000 |
| C=CC(=O)N1CCC(Nc2cc3c(Nc4ccc(Oc5ccnc(N6CCOC[C@H]6CO)c5)cc4F)ncnc3cc2OC)CC1 [Example 126, (R)-1-(4-((4-((2-fluoro-4-((2-(3-(hydroxymethyl)morpholino)pyridin-4-yl)oxy)phenyl)amino)-7-methoxyquinazolin-6-yl)amino)piperidin-1-yl)prop-2-en-1-one] | ≥ 1000 | 100 to 300 | 60 to 100 | 100 to 300 | ≥ 1000 |
| C=CC(=O)N1CCC(Nc2cc3c(Nc4ccc(Oc5ccnc(N6CC(CO)C6)c5)cc4F)ncnc3cc2OC)CC1 [Example 140, 1-(4-((4-((2-fluoro-4-((2-(3-(hydroxymethyl)azetidin-1-yl)pyridin-4-yl)oxy)phenyl)amino)-7-methoxyquinazolin-6-yl)amino)piperidin-1-yl)prop-2-en-1-one] | 600 to 1000 | 100 to 300 | 100 to 300 | 300 to 600 | 600 to 1000 |
| C=CC(=O)N1CCC(Nc2cc3c(Nc4ccc(Oc5ccn(-c6ccc(OC)nc6)n5)cc4F)ncnc3cc2OC)CC1 [Compound 12, 1-(4-((4-((2-fluoro-4-((1-(6-methoxypyridin-3-yl)-1H-pyrazol-3-yl)oxy)phenyl)amino)-7-methoxyquinazolin-6-yl)amino)piperidin-1-yl)prop-2-en-1-one] | 30 to 60 | < 30 | < 30 | < 30 | 100 to 300 |
| C=C(F)C(=O)N1CCC(Nc2cc3c(Nc4ccc(Oc5ccn(-c6ccc(C)nc6)n5)cc4F)ncnc3cc2OC)CC1 [Example 25, 2-fluoro-1-(4-((4-((2-fluoro-4-((1-(6-methylpyridin-3-yl)-1H-pyrazol-3-yl)oxy)phenyl)amino)-7-methoxyquinazolin-6-yl)amino)piperidin-1-yl)prop-2-en-1-one] | ≥ 1000 | ≥ 1000 | ≥ 1000 | ≥ 1000 | ≥ 1000 |
| C=CC(=O)N1CCC(Nc2cc3c(Nc4ccc(Oc5ccnc(N6CC(COC)C6)c5)cc4F)ncnc3cc2OC)CC1 [Example 142, 1-(4-((4-((2-fluoro-4-((2-(3-(methoxymethyl)azetidin-1-yl)pyridin-4-yl)oxy)phenyl)amino)-7-methoxyquinazolin-6-yl)amino)piperidin-1-yl)prop-2-en-1-one] | 100 to 300 | < 30 | < 30 | < 30 | ≥ 1000 |
| C=CC(=O)N1CCC(Nc2cc3c(Nc4ccc(Oc5ccnc(-c6nnc(C)o6)c5)cc4F)ncnc3cc2OC)CC1 [Compound 193, 1-(4-((4-((2-fluoro-4-((2-(5-methyl-1,3,4-oxadiazol-2-yl)pyridin-4-yl)oxy)phenyl)amino)-7-methoxyquinazolin-6-yl)amino)piperidin-1-yl)prop-2-en-1-one] | 100 to 300 | < 30 | < 30 | < 30 | ≥ 1000 |
| C=CC(=O)N1CCC(Nc2cc3c(Nc4ccc(Oc5ccnc(N6CCOC(C)(C)C6)c5)cc4F)ncnc3cc2OC)CC1 [Example 138, 1-(4-((4-((4-((2-(2,2-dimethylmorpholino)pyridin-4-yl)oxy)-2-fluorophenyl)amino)-7-methoxyquinazolin-6-yl)amino)piperidin-1-yl)prop-2-en-1-one] | 100 to 300 | < 30 | < 30 | < 30 | ≥ 1000 |
| C=CC(=O)N1CCC(Nc2cc3c(Nc4ccc(Oc5ccn(-c6cnc(OC)c(F)c6)n5)cc4F)ncnc3cc2OC)CC1 [Example 90, 1-(4-((4-((2-fluoro-4-((1-(5-fluoro-6-methoxypyridin-3-yl)-1H-pyrazol-3-yl)oxy)phenyl)amino)-7-methoxyquinazolin-6-yl)amino)piperidin-1-yl)prop-2-en-1-one] | 60 to 100 | 60 to 100 | 100 to 300 | 60 to 100 | 100 to 300 |
| C=CC(=O)N1CCC(Nc2cc3c(Nc4ccc(Oc5ccnc(N6CCC(O)CC6)c5)cc4F)ncnc3cc2OC)CC1 [Example 121, 1-(4-((4-((2-fluoro-4-((2-(4-hydroxypiperidin-1-yl)pyridin-4-yl)oxy)phenyl)amino)-7-methoxyquinazolin-6-yl)amino)piperidin-1-yl)prop-2-en-1-one] | 300 to 600 | < 30 | < 30 | < 30 | ≥ 1000 |
| C=CC(=O)N1CCC(Nc2cc3c(Nc4ccc(Oc5ccnc(N(C)CCOC)c5)cc4F)ncnc3cc2OC)CC1 [Example 116, 1-(4-((4-((2-fluoro-4-((2-((2-methoxyethyl)(methyl)amino)pyridin-4-yl)oxy)phenyl)amino)-7-methoxyquinazolin-6-yl)amino)piperidin-1-yl)prop-2-en-1-one] | 300 to 600 | 100 to 300 | 100 to 300 | 60 to 100 | 600 to 1000 |
| C=CC(=O)N1CCC(Nc2cc3c(Nc4ccc(Oc5ccnc(N6C[C@H](C)C[C@H](C)C6)c5)cc4F)ncnc3cc2OC)CC1 [Example 158, 1-(4-((4-((4-((2-((3S,5R)-3,5-dimethylpiperidin-1-yl)pyridin-4-yl)oxy)-2-fluorophenyl)amino)-7-methoxyquinazolin-6-yl)amino)piperidin-1-yl)prop-2-en-1-one] | 600 to 1000 | 60 to 100 | 100 to 300 | 300 to 600 | ≥ 1000 |
| C=CC(=O)N1CCC(Nc2cc3c(Nc4ccc(Oc5ccnc(N6CCC(F)(F)C6)c5)cc4F)ncnc3cc2OC)CC1 [Example 194, 1-(4-((4-((4-((2-(3,3-difluoropyrrolidin-1-yl)pyridin-4-yl)oxy)-2-fluorophenyl)amino)-7-methoxyquinazolin-6-yl)amino)piperidin-1-yl)prop-2-en-1-one] | 60 to 100 | < 30 | < 30 | < 30 | 300 to 600 |
| CC#CC(=O)N1CCC(Nc2cc3c(Nc4ccc(Oc5ccn(-c6cnc(C)c(F)c6)n5)cc4F)ncnc3cc2OC)CC1 [Example 24, 1-(4-((4-((2-fluoro-4-((1-(5-fluoro-6-methylpyridin-3-yl)-1H-pyrazol-3-yl)oxy)phenyl)amino)-7-methoxyquinazolin-6-yl)amino)piperidin-1-yl)but-2-yn-1-one] | ≥ 1000 | ≥ 1000 | ≥ 1000 | ≥ 1000 | ≥ 1000 |
| C=CC(=O)N1CCC(Nc2cc3c(Nc4ccc(Oc5cc(-c6ccc(C)nc6)ccn5)cc4F)ncnc3cc2OC)CC1 [Compound 46, 1-[4-({4-[(2-fluoro-4-{[4-(6-methylpyridin-3-yl)pyridin-2-yl]oxy}phenyl)amino]-7-methoxyquinazolin-6-yl}amino)piperidin-1-yl]prop-2-en-1-one] | 100 to 300 | 30 to 60 | 60 to 100 | < 30 | ≥ 1000 |
| C=CC(=O)N1CCC(Nc2cc3c(Nc4ccc(Oc5ccnc(N6CCN(C)[C@@H](C)C6)c5)cc4F)ncnc3cc2OC)CC1 [Example 179, (S)-1-(4-((4-((4-((2-(3,4-dimethylpiperazin-1-yl)pyridin-4-yl)oxy)-2-fluorophenyl)amino)-7-methoxyquinazolin-6-yl)amino)piperidin-1-yl)prop-2-en-1-one] | ≥ 1000 | 60 to 100 | < 30 | 30 to 60 | ≥ 1000 |
